Data as given in a melting point compilation (Tetko et al.; mined from patent text by program, amines drawn as free bases though some values may be those of a salt).

Row | melting point | Structure (SMILES)
1 | 101 °C | CCCN(CCC)C(=O)c1cc2ccccc2c(-c2ccccc2Cl)n1
2 | 36.5 to 36.9 °C | CCCCC(=O)Oc1ccc(-c2ccc(C#N)cc2)cc1
3 | 185 to 186 °C | O=C(N[C@H](Cc1ccc(C(F)(F)F)cc1)[C@@H](O)c1ccc(F)cc1)c1cccc2c1C(=O)c1ccccc1-2 (racemic)
4 | 153 to 156 °C | CCc1cc2c(ccc(=O)n2Cc2ccc([N+](=O)[O-])cc2)c(CC)n1
5 | 222 to 223 °C | O=C(O)c1ccc(OCc2ccc(Cl)c(Cl)c2)cc1
6 | 105 to 106 °C | CCCCN(Cc1ccc(-c2ccccc2-c2nnn[nH]2)cc1)c1nnn(CC(C)C)c1C(=O)O
7 | 66 °C | CCCCOC(=O)C(C)Oc1ccc(COc2ccc(Cl)cc2)cc1 (stereo not given)
8 | 110 to 111 °C | COc1cccc(C2CCCN2CCN2C(=O)c3ccccc3C2=O)c1 (stereo not given)
9 | 139 to 143 °C | Cc1cc(C(=O)CCc2sc(-c3ccc(C(F)(F)F)cc3)cc2C(C)C)ccc1OCC(=O)O
10 | 203 to 205 °C | Cn1nc(C(=O)NCc2ccc(Cl)cc2)c(=O)c2cc(CO)ccc21
11 | 205 to 207 °C | CS(=O)(=O)c1ccc(-c2cnn(-c3cccc(Cl)c3)c(=O)c2Oc2ccccc2)cc1
12 | 133 °C | CCN(CC)CCSC1=C(C#N)C(c2ccccc2)(c2cccnc2)C(=O)N1 (stereo not given)

The remaining lines, values behind:

Row | Structure (SMILES) | melting point
13 | CCOC(=O)c1cc2cccc(NC(=O)OC(C)(C)C)c2[nH]1 | 132 to 133 °C
14 | COc1cc2[nH]c(S(=O)Cc3nccc(N4CCOCC4)c3F)nc2cc1C (stereo not given) | 185 to 186 °C
15 | O=C(O)CC1CCCC2CC(=O)NC12 (stereo not given) | 238 to 240 °C
16 | OCCCCCc1ccc2ccccc2c1O | 43 to 46 °C
17 | Cc1sc(CO)c(C)c1C | 45 to 48 °C
18 | CC(=CCO)CS(=O)(=O)c1ccccc1 | 55 to 56.5 °C
19 | CC(=O)Oc1n[nH]c(=O)c2nc3cc(Cl)ccc3c(O)c12 | > 300 °C
20 | CSc1nc(-c2ccccn2)n(-c2ccc(C)cc2)c(=O)c1C#N | 247 to 248 °C
21 | Cc1nn(-c2cc(F)c(C#N)cc2F)c(C)c1Cl | 153 °C
22 | COc1cc(OC)nc(C(C(N)=O)c2cccc(Cl)c2)n1 (stereo not given) | 118 to 119 °C
23 | COc1cc(COc2nn(-c3ccccc3)cc2/C=C/C#N)ccc1OCc1nc(-c2ccco2)oc1C | 177 to 178 °C
24 | O=C(Nc1cccc(C(F)(F)F)c1)c1cccnc1NCc1cccc(O)c1 | 143 to 146 °C
25 | Oc1ccc(-c2cccnc2)cc1O | 288 to 290 °C
26 | O=S(=O)(c1ccc(O)cc1)c1ccc(O)c2ccccc12 | 198 to 199 °C
27 | NCC(O)C1=CC2(CC2)c2ccccc21 (stereo not given) | 133 to 134 °C
28 | CC(C)(N)c1ccc(-c2nc(Nc3ccc(F)cc3)ncc2C#N)cc1 | 228 to 229 °C
29 | C=CC(O)CCCC(O)CCCC1(C)OCCO1 (stereo not given) | 52 to 54 °C
30 | CCc1cncc(-c2nc(C(=O)N(C)C)c3c4ccc(Cl)cc4n(C)c3n2)c1 | 218 to 219 °C
31 | COc1ccc(C(=O)Nc2ccc(F)cc2)cc1NCc1cccs1 | 179 to 181 °C
32 | c1ccc2cc(OCCCNC3CCCCC3)ccc2c1 | 98 °C
33 | COc1ccc(CC2Cc3cc(C)cnc3C(OC(C)=O)C2)cc1 (single isomer, unassigned; (+)) | 94 to 98 °C
34 | CN(Cc1ccccc1)c1nc(N2CCC(NCC(c3ccccc3)c3ccccc3)CC2)nc2c(N3CCOCC3)ncnc12 | 106 to 108 °C
35 | O=C(Nc1cc2ncc(CN3CCCC3)cc2cc1F)c1ccc(-c2ccc(F)cc2)cc1 | 198 to 200 °C
36 | CC(=O)OC1CCC2(C)C(=CCC3C2CCC2(C)C(n4cnc5ccccc54)=CCC32)C1 (stereo not given) | 159 to 160 °C
37 | COC(=O)c1ccccc1OS(=O)(=O)N(C)C | 75.5 to 76.5 °C
38 | CC(CN1CCCC1)N1c2ccccc2Sc2ccc(C(=O)NCC3CCCC3)cc21 (racemic) | 124 °C
39 | Cc1ccc(-c2nc(N)nc(N)c2[N+](=O)[O-])o1 | 196 to 197 °C
40 | O=C(c1ccccc1)N1CCN(c2ccc3nc4[nH]c(=O)[nH]c4cc3c2)CC1 | > 300 °C
